Source: patent US20100197604A1, “USE OF PEPTIDE AS A THERAPEUTIC AGENT” (priority 2007, published 2010)

Tested on: drug-resistant Mycobacterium tuberculosis
Conditions: drug-resistant Mycobacterium tuberculosis growth; peptide 10 micrograms per ml; seven days

**Q.** `CC[C@H](C)[C@H](NC(=O)[C@H](Cc1ccc(O)cc1)NC(=O)[C@@H](NC(=O)[C@H](CCCNC(=N)N)NC(=O)[C@@H](N)CC(=O)O)C(C)C)C(=O)N[C@@H](Cc1c[nH]cn1)C(=O)N1CCC[C@H]1C(=O)N[C@@H](Cc1ccccc1)C(=O)O` [Angiotensin II] was tested. Which “% inhibition” value did it give?
**A.** 0.0%
